Literature values, collected in patent US20260130963A1, “COMPOSITIONS COMPRISING RED YEAST RICE” (Meda Pharma S.p.A., priority 2021, published 2026).
≈ marks a conversion by molar mass, not a printed value.

Legend:
[1] = “low solubility/high permeability”
[2] = in vivo

In the case of `CC[C@H](C)C(=O)O[C@H]1C[C@@H](C)C=C2C=C[C@H](C)[C@H](CC[C@@H]3C[C@@H](O)CC(=O)O3)[C@H]21` [Lovastatin], the BCS classification [1] is given as “BCS Class II”, the water solubility is given as 0.4 µg/mL (≈ 0.989 µM) and the half-life [2] is given as 1 to 2 h.
